The text below walks through data of PubChem BioAssay (NCI).

Test systems include MALME-3M melanoma; PC-3 prostate; OVCAR-3 ovarian; EKVX NSCLC; SW-620 colon; A498 renal; SN12C renal; U251 CNS; HOP-62 NSCLC; SK-MEL-2 melanoma.
Assay in all cases: NCI anticancer screen, dose series, 48 h

Where “and” joins values, the source holds several entries; their conditions need not be identical. Identical values can stand only once.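 Where inhibition never reached the appropriate level, the endpoint shown equals the highest concentration tested. Otherwise, values were interpolated linearly from a five-concentration, 48-hour dose response in 96-well plates. Abbreviation: GI50, concentration required for 50% inhibition of growth. TGI marks complete inhibition of growth.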 A value given as a limit tells only on which side of the number the result lay.

In the case of `CC1CC(C)C2=NOS3=C2C1=NO3` (stereo unspecified), the TGI in the test on MALME-3M melanoma was over 100 µM; in the test on PC-3 prostate, over 100 µM; in the test on OVCAR-3 ovarian, over 100 µM; with EKVX NSCLC, over 100 µM; in the test with SW-620 colon it was over 100 µM; with A498 renal it was 94.8 µM. Also, the TGI in the test on SN12C renal, with U251 CNS, in the test on HOP-62 NSCLC and in the test with SK-MEL-2 melanoma was over 100 µM in each case.
`NC(=Nc1nc(-c2ccccn2)cc2ccccc12)c1ccccn1`: the GI50 with MALME-3M melanoma is 0.126 µM; in the test with PC-3 prostate, 0.0545 µM; with OVCAR-3 ovarian, 0.00188 µM; in the test on SW-620 colon, 0.0505 µM; with A498 renal, 0.0283 µM; in the test with SN12C renal it was 0.131 µM. Besides, the GI50 is 0.111 µM with U251 CNS; 0.319 µM in the test with HOP-62 NSCLC; 0.477 µM and 0.272 µM with SK-MEL-2 melanoma. Also, the TGI in the test with PC-3 prostate was over 100 µM; in the test on OVCAR-3 ovarian it was over 100 µM; in the test with EKVX NSCLC, over 17.2 µM; in the test with SW-620 colon, over 100 µM; in the test on SN12C renal, 22.7 µM; in the test on U251 CNS it was 18.6 µM. For the same molecule, the TGI is 38.1 µM in the test on HOP-62 NSCLC and over 89.3 µM with SK-MEL-2 melanoma.
With `COc1ccc2c(c1)C(=O)c1c-2n(CCCN)c(=O)c2cc(OC)c(OC)cc12`, the GI50 in the test with MALME-3M melanoma is 1.14 µM; in the test with PC-3 prostate it was 0.205 µM; in the test with OVCAR-3 ovarian, 0.203 µM; in the test with EKVX NSCLC, 1.83 µM; in the test on SW-620 colon, 0.0554 µM; with A498 renal, 1.89 µM. Moreover, the GI50 in the test with SN12C renal was 0.112 µM; with U251 CNS it was 0.0491 µM; in the test with HOP-62 NSCLC, under 0.01 µM; in the test on SK-MEL-2 melanoma, 2.55 µM. The TGI was found to be 3 µM in the test with MALME-3M melanoma; 1.27 µM in the test with PC-3 prostate; 1.38 µM in the test on OVCAR-3 ovarian; 3.67 µM in the test with EKVX NSCLC; 1.98 µM in the test with SW-620 colon; 5.59 µM with A498 renal. The TGI with SN12C renal is 1.51 µM; with U251 CNS, 1.63 µM; with HOP-62 NSCLC it was 0.133 µM.
As to `CC(=O)NC(CCCCN(Cc1ccccc1)C(=O)N(CCCl)N=O)C(=O)NCc1ccccc1` (stereo unspecified), the TGI was 58.1 µM in the test on MALME-3M melanoma; over 100 µM with PC-3 prostate; over 100 µM with OVCAR-3 ovarian; 97.9 µM with EKVX NSCLC; over 70.7 µM in the test on SW-620 colon; over 100 µM in the test on A498 renal. The TGI is over 77.8 µM in the test on SN12C renal, 39.7 µM in the test on U251 CNS, 47 µM in the test with HOP-62 NSCLC and 62.2 µM with SK-MEL-2 melanoma.
In the case of `O=C(Nc1cccnc1)c1ccc2ccc3ccc(C(=O)Nc4cccnc4)nc3c2n1`, the GI50 with MALME-3M melanoma is over 100 µM; with PC-3 prostate, 0.158 µM; in the test on OVCAR-3 ovarian it was 0.242 µM; with EKVX NSCLC it was 0.294 µM; with SW-620 colon it was 0.0781 µM; with A498 renal it was 0.214 µM. The GI50 with SN12C renal was 0.3 µM; in the test on U251 CNS it was 0.0613 µM; in the test with HOP-62 NSCLC it was 0.13 µM; in the test with SK-MEL-2 melanoma it was 0.911 µM. Besides, the TGI with MALME-3M melanoma is over 100 µM; in the test with PC-3 prostate it was over 100 µM; with OVCAR-3 ovarian, over 100 µM; in the test with EKVX NSCLC, over 100 µM; in the test on SW-620 colon, over 100 µM; with A498 renal, 0.553 µM. In addition, the TGI in the test with SN12C renal, with U251 CNS, in the test with HOP-62 NSCLC and with SK-MEL-2 melanoma was over 100 µM throughout.
Consider `O=C1C(=O)N(c2cccc(C(F)(F)F)c2)C(=O)C(=O)C1c1nc2ccccc2s1`, for which the TGI in the test on MALME-3M melanoma, in the test on PC-3 prostate, with OVCAR-3 ovarian, with EKVX NSCLC, in the test on SW-620 colon and in the test with A498 renal was over 100 µM each time. In addition, the TGI in the test on SN12C renal, with U251 CNS, with HOP-62 NSCLC and in the test with SK-MEL-2 melanoma was over 100 µM in each case.
Consider `O=C(Cn1c(C(=O)c2ccccc2)nc2ccccc21)c1ccc(F)cc1`, for which the GI50 in the test on MALME-3M melanoma is 11.1 µM; with PC-3 prostate it was 13.6 µM; in the test with OVCAR-3 ovarian, 3.39 µM; in the test on EKVX NSCLC it was 21.1 µM; in the test on SW-620 colon, 3.28 µM; in the test on A498 renal, 4.86 µM. In addition, the GI50 in the test with SN12C renal was over 30.7 µM; in the test on U251 CNS, 4.11 µM; in the test with HOP-62 NSCLC, 9.44 µM; in the test on SK-MEL-2 melanoma, 17.4 µM. Moreover, the TGI in the test with MALME-3M melanoma is over 100 µM; with PC-3 prostate, over 100 µM; in the test on OVCAR-3 ovarian it was over 25.5 µM; in the test on EKVX NSCLC it was over 100 µM; with SW-620 colon, over 100 µM; with A498 renal it was over 43.7 µM. Moreover, the TGI with SN12C renal is over 100 µM; in the test on U251 CNS, over 100 µM; in the test with HOP-62 NSCLC, over 100 µM; with SK-MEL-2 melanoma, over 74 µM.
As to `CCOc1c(C#N)c2c(N)ncnc2n1C1OC(CO)C(O)C1O` (stereo unspecified), the GI50 with MALME-3M melanoma was 3.62 µM; with PC-3 prostate, 2.77 µM; in the test with OVCAR-3 ovarian it was 2.53 µM; in the test with EKVX NSCLC, 4.74 µM; in the test with SW-620 colon it was 2.18 µM; with A498 renal it was 4.23 µM. For the same molecule, the GI50 with SN12C renal was 3.14 µM; in the test with U251 CNS, 3.21 µM; in the test with HOP-62 NSCLC it was 5.01 µM; in the test with SK-MEL-2 melanoma, 8.61 µM. For the same molecule, the TGI was 24.2 µM in the test on MALME-3M melanoma; over 31.7 µM with PC-3 prostate; 7.09 µM in the test with OVCAR-3 ovarian; over 100 µM in the test with EKVX NSCLC; over 44.6 µM in the test on SW-620 colon; 49.2 µM with A498 renal. Besides, the TGI in the test on SN12C renal was over 100 µM; in the test with U251 CNS, over 100 µM; in the test on HOP-62 NSCLC, 26.5 µM; in the test with SK-MEL-2 melanoma, 28.3 µM.
Take `CN1CCN(Cc2ccc(NC(=O)c3cncc(C#Cc4cnn5ccccc45)c3)cc2C(F)(F)F)CC1`: the GI50 is 0.604 µM in the test with MALME-3M melanoma; 1.01 µM in the test on PC-3 prostate; 1.43 µM in the test with OVCAR-3 ovarian; 0.786 µM with EKVX NSCLC; 0.382 µM in the test with SW-620 colon; 0.821 µM with A498 renal. Moreover, the GI50 in the test with SN12C renal is 0.825 µM; in the test on U251 CNS, 1.06 µM; in the test with HOP-62 NSCLC it was 0.939 µM; with SK-MEL-2 melanoma, 0.891 µM. Besides, the TGI stood at 1.45 µM with MALME-3M melanoma; 4.19 µM with PC-3 prostate; 3.62 µM with OVCAR-3 ovarian; 2 µM in the test with EKVX NSCLC; 3.22 µM with SW-620 colon; 1.89 µM in the test on A498 renal. Besides, the TGI turned out to be 3.85 µM in the test with SN12C renal, 4.15 µM with U251 CNS, 2.93 µM with HOP-62 NSCLC and 2.02 µM with SK-MEL-2 melanoma.
Consider `CC[C@]12C=CCN3CC[C@@]4(c5ccc(OC)cc5N(C)[C@H]4[C@@](O)(C(=O)OC)[C@@H]1OC(=O)CCC(=O)N[C@H](Cc1c[nH]c4ccccc14)C(=O)OC)[C@@H]32`, for which the GI50 is 2.6 µM with MALME-3M melanoma; 2.95 µM with PC-3 prostate; 3.8 µM with OVCAR-3 ovarian; 10.7 µM with EKVX NSCLC; 3.03 µM in the test with SW-620 colon; 9.29 µM in the test with A498 renal. The GI50 was 3.68 µM in the test with SN12C renal, 8.08 µM in the test on U251 CNS, 6.32 µM with HOP-62 NSCLC and 17 µM in the test with SK-MEL-2 melanoma. Further, the TGI in the test with MALME-3M melanoma stood at 8.09 µM; in the test on PC-3 prostate it was 17 µM; in the test on OVCAR-3 ovarian, 16.4 µM; with EKVX NSCLC, 35.7 µM; in the test with SW-620 colon, 10.6 µM; in the test with A498 renal, 30.8 µM. Also, the TGI in the test with SN12C renal is 23.9 µM; with U251 CNS, 24.9 µM; with HOP-62 NSCLC it was 24.5 µM; in the test on SK-MEL-2 melanoma, 37.3 µM.
On to `CCOC(=O)c1cc(-c2ccc(OC)c(OC)c2)[nH]c1N/N=C/c1c(Cl)cccc1Cl`, for which the GI50 is 2.88 µM in the test with MALME-3M melanoma; 2.14 µM in the test on PC-3 prostate; 0.74 µM in the test with OVCAR-3 ovarian; 5.37 µM in the test on EKVX NSCLC; 2.5 µM in the test with SW-620 colon; 1.03 µM in the test on A498 renal. The GI50 was 3.64 µM in the test on SN12C renal, 2.15 µM with U251 CNS, 2.51 µM in the test on HOP-62 NSCLC and 7.28 µM in the test on SK-MEL-2 melanoma. Also, the TGI is 16.7 µM with MALME-3M melanoma; 19 µM with PC-3 prostate; 2.64 µM in the test on OVCAR-3 ovarian; 19.9 µM in the test on EKVX NSCLC; over 44.5 µM in the test on SW-620 colon; 7.77 µM in the test on A498 renal. Also, the TGI stood at 22.3 µM with SN12C renal, 18.2 µM in the test on U251 CNS, 14.5 µM with HOP-62 NSCLC and 48.6 µM in the test with SK-MEL-2 melanoma.
`CC1CCc2c(c(CC3CC(=O)NC(=O)C3)nn2-c2ccccc2)C1` (stereo unspecified): the TGI in the test with MALME-3M melanoma, with PC-3 prostate, in the test on OVCAR-3 ovarian, in the test with EKVX NSCLC, in the test on SW-620 colon and in the test with A498 renal was over 100 µM in each case. Besides, the TGI in the test on SN12C renal, in the test on U251 CNS, in the test with HOP-62 NSCLC and in the test with SK-MEL-2 melanoma was over 100 µM in each case.
